Assay results published in patent publication US8404664B2, “Phosphonated Rifamycins and uses thereof for the prevention and treatment of bone and joint infections” (Targanta Therapeutics, Inc., priority 2005, dated 2013).
In brackets after ≈: the same amount, converted by molar mass.

Tests used:
[1] = system: S. aureus ATCC 13709 Novobiocin and Rifampicin resistant variant; test: microbe, parasite or virus in culture; type: cell-based
How it was run: (§1)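 Two-fold serial dilutions in DMSO tested in cation-adjusted Mueller Hinton broth per NCCLS M26-A, 5×10^5 c.f.u./mL inoculum, 1.25% final DMSO, duplicates.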

S. aureus RN4220 = test: Antibacterial susceptibility (MIC), NCCLS broth microdilution; type: cell-based; settings: CAMHB, 37° C., 18 h
How it was run: as §1

S. aureus ATCC 13709 [2] = test: as above; type: cell-based
How it was run: as §1

[3] = system: S. aureus BK85 (Fluoroquinolone resistant MRSA); test: as above; type: cell-based
How it was run: as §1

[4] = system: S. aureus ATCC 43300 (Fluoroquinolone sensitive MRSA); test: as above; type: cell-based
How it was run: as §1

[5] = Regeneration of drug from bone powder-bound prodrug; type: in vitro ADME; settings: for % Conversion of bone-bound prodrug to parent drug: 24 h incubation, 37° C.
[6] = system: S. aureus (chronic bone infection); test: Treatment of chronic osteomyelitis caused by S. aureus in rat model; type: in vivo; settings: prodrug iv at 20 mg/kg parent equivalent
Description: To appraise the ability of bisphosphonated prodrugs of Rifamycin derivatives in treating chronic bone infections, a comparison was made between parent compounds 9, 56, 69, rifabutin and rifalazil (all of which are non-bisphosphonated rifamycin derivatives), and their corresponding bisphosphonated prodrugs, respectively 11, 62, 71, 36 and 81, when used to treat chronically (14- to 28-day) infected rats for 4 weeks of antimicrobial therapy.
In this experiment, rats were infected as described in Example 4 and treated with either 20 mg/kg of body weight of the specific rifamycin derived antibacterial agent subcutaneously, or a molar equivalent dose of its bisphosphonated prodrug intravenously according to the indicated schedule after instillation of bacteria. The standard controls involving no treatment and a subcutaneous treatment of 20 mg/kg of Rifampicin daily were also included. The rats were humanely sacrificed at the conclusion of the experiment and the bacterial titers in the infected tibiae were determined.
This experiment was performed with 20 mg/kg of body weight of rifamycin derivative 9 subcutaneously or with 32 mg/kg of its prodrug 11 (corresponding to 20 mg/kg of 9) intravenously on each of the 20th, 24th, 28th, 32nd, 36th, 40th and […] days (q4 days) after instillation of bacteria. Alternatively, 11 was administered by the same route and at the same dose on the 20th, 21st, 22nd, 23rd, 30th, 37th, 44th and 47th days (q24hx4+q7d) after the instillation of bacteria. The same controls (no treatment or daily subcutaneous 20 mg/kg dose of rifampicin) were used. The rats were humanely sacrificed on the 48th day after the initiation of infection and the bacterial titers in the infected tibiae were determined.
This experiment was also executed in which similarly infected rats were treated with either 20 mg/kg of body weight of rifabutin subcutaneously or with 33.4 mg/kg of its prodrug 36 (corresponding to 20 mg/kg of rifabutin) intravenously on each of the 28th, 32nd, 36th, 40th, 44th, 48th and 52nd days (q4 days) after instillation of bacteria. The same controls (no treatment or daily subcutaneous 20 mg/kg dose of rifampicin) were used. The rats were humanely sacrificed on the 55th day after the initiation of infection and the bacterial titers in the infected tibiae were determined.
This experiment was also executed in which similarly infected rats were treated with either 20 mg/kg of body weight of the rifamycin derived antibacterial agent 56 subcutaneously or with 26 mg/kg of its prodrug 62 (corresponding to 20 mg/kg of 56) intravenously on each of the 27th, 28th, 29th, 30th, 34th, 38th, 42nd, 46th and 50th days (q24hx4+q4 days) after instillation of bacteria. The same controls (no treatment or daily subcutaneous 20 mg/kg dose of rifampicin) were used. The rats were humanely sacrificed on the 51^St day after the initiation of infection and the bacterial titers in the infected tibiae were determined.
This experiment was also executed in which similarly infected rats were treated with either 20 mg/kg of body weight of the rifamycin derived antibacterial agent 69 subcutaneously or with 28 mg/kg of its prodrug 71 (corresponding to 20 mg/kg of 69) intravenously on each of the 18th, 19th, 20th, 21st, 25th, 29th, 33rd, 37th, 41st and 45th days (q24hx4+q4 days) after instillation of bacteria. The same controls (no treatment or daily subcutaneous 20 mg/kg dose of rifampicin) were used. The rats were humanely sacrificed on the 46th day after the initiation of infection and the bacterial titers in the infected tibiae were determined.

S. aureus ATCC 13709 [7] = test: Antibacterial susceptibility (MIC) in the presence of serum; type: cell-based
[8] = system: E. coli LBB925 (tolC mutant); test: Antibacterial susceptibility (MIC), NCCLS broth microdilution; type: cell-based; settings: tolC mutant

CO[C@H]1/C=C/O[C@@]2(C)Oc3c(C)c(O)c4c(=O)c(c5oc6cc(N7CCN(CC(C)C)CC7)cc(O)c6nc-5c4c3C2=O)NC(=O)/C(C)=C\C=C\[C@H](C)[C@H](OC(=O)CCCOC(=O)CCC(=O)NC(P(=O)(O)O)P(=O)(O)O)[C@@H](C)[C@@H](O)[C@@H](C)[C@H](OC(C)=O)[C@@H]1C [Compound 81, 21-O-(4-((3-(bisphosphonomethyl)carbamoyl)propanoyloxy)butanoyl)-1′,4-Didehydro-1-deoxy-1,4-dihydro-3′-hydroxy-5′-[4-(2-methylpropyl)-1-piperazinyl]-1-oxorifamycin VIII]
Activity against the Rifampicin resistant variant of S. aureus ATCC13709 (in words) [1]: complete lack of activity | Minimum inhibitory concentration, S. aureus ATCC 13709 variant ([1]; Novobiocin and Rifampicin resistant variant): >128 µg/mL | Minimum inhibitory concentration, S. aureus RN4220 (S. aureus RN4220): 1 ng/mL (≈ 0.769 nM) | Minimum inhibitory concentration, S. aureus ATCC 13709 (S. aureus ATCC 13709 [2]): 1 ng/mL (≈ 0.769 nM) | Antibacterial activity (in words, summary of Table 1) (S. aureus ATCC 13709 [2]; summary over the strains of Table 1): very low MICs | Minimum inhibitory concentration, S. aureus BK85 [3]: 1 ng/mL (≈ 0.769 nM) | Minimum inhibitory concentration, S. aureus ATCC 43300 [4]: 1 ng/mL (≈ 0.769 nM) | % Conversion of bone-bound prodrug to parent drug ([5]; 50% Rat Serum): 2.50% | % Conversion of bone-bound prodrug to parent drug ([5]; PBS): 1.98% | Impact of the medium on the rate of regeneration of parent drug (in words) ([5]; serum compared to PBS): not significantly impacted | Decrease in bacterial titer ([6]; q24hx4+q4 days, FIGS. 3, 4, 5): approximately 1 logarithmic order of magnitude | Effect on bacterial titer in bone infection versus the untreated control (figure legends) ([6]; regimen of the figure, 4 weeks post-infection): small but statistically significant effect | Minimum inhibitory concentration, S. aureus ATCC 13709 + 50% Human Serum (S. aureus ATCC 13709 [7]; 50% Human Serum): 0.125 µg/mL | Minimum inhibitory concentration, S. aureus ATCC 13709 + 50% Mouse Serum (S. aureus ATCC 13709 [7]; 50% Mouse Serum): 0.0625 µg/mL | Minimum inhibitory concentration, S. aureus ATCC 13709 + 50% Rat Serum (S. aureus ATCC 13709 [7]; 50% Rat Serum): 0.03125 µg/mL | Minimum inhibitory concentration, E. coli LBB925 [8]: >128 µg/mL
